Our source for the IC50 and Activity values is ChEMBL document CHEMBL3714750, “Aryl sulfonamides” (2008).

The source made the active and inactive calls. The rule behind the calls is not given here.

As a reminder, the IC50 is the concentration that gives 50% inhibition.

The target in one experiment is T1, C-C chemokine receptor type 9 (Homo sapiens, UniProt P51686).
T1 sequence (P51686 whole entry): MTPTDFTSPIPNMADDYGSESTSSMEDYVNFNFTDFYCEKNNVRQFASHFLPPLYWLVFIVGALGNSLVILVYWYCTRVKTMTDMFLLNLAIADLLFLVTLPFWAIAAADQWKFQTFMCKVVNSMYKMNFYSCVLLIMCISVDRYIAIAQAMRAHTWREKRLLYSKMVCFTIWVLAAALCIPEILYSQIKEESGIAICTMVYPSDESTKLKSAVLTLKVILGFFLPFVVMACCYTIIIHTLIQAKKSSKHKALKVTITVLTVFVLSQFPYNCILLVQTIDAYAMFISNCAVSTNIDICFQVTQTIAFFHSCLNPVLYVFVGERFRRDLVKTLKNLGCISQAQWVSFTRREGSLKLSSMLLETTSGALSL
Nature of the experiment: Antagonist activity against CCR9 in human MOLT4 cells assessed as inhibition of human recombinant TECK-induced calcium response pre-treated before TECK stimulation by Flou-4-AM dye based FLIPR assay. The format is functional, cell-based, MOLT-4.
Consider `CC(C)(C)c1ccc(S(=O)(=O)Nc2ccc(Cl)cc2C(=O)c2ccncc2)cc1`, for which the IC50 was below 1000 nM.

`O=C(c1ccncn1)c1cc(Cl)ccc1NS(=O)(=O)c1ccc(-c2cnco2)cc1`: the IC50 was above 1000 nM.

In the case of `CC(C)(C)c1ccc(S(=O)(=O)Nc2ccc(F)c(F)c2C(=O)c2ccncc2)cc1`, the IC50 was below 1000 nM. The same measure, in the same setting: as for `C[C@@H]1CN(c2ccc(S(=O)(=O)Nc3ccc(Cl)cc3C(=O)c3ccncc3)cc2F)C[C@H](C)O1`, the figure is below 1000 nM; as for `O=C(c1ccncc1)c1cc(Cl)ccc1NS(=O)(=O)c1ccc(CCc2ncco2)cc1`, below 1000 nM; as for `CC(C)(C)c1ccc(S(=O)(=O)Nc2cc(F)c(F)cc2C(=O)c2ccncc2)cc1`, below 1000 nM. Still for that read-out and setting: as for `CC(C)c1ccc(S(=O)(=O)Nc2ccc(Br)cc2C(=O)c2ccncc2)cc1`, the figure is below 1000 nM; as for `O=C(c1cccnc1)c1cc(F)c(F)cc1NS(=O)(=O)c1ccc(N2CCOCC2)cc1`, below 1000 nM; as for `Cc1ccc(C(=O)c2cc(Cl)ccc2NS(=O)(=O)c2ccc(C(C)(C)c3ncco3)cc2)c[n+]1[O-]`, below 1000 nM. As to `CCc1ccc(S(=O)(=O)Nc2ccc(Cl)cc2C(=O)c2ccncc2)cc1`, the IC50 was below 1000 nM. Still for that read-out and setting: as for `CC1(c2ccc(S(=O)(=O)Nc3ccc(Cl)cc3C(=O)c3cccnc3)cc2)CCOCC1`, the figure is below 1000 nM; as for `O=C(c1ccncc1)c1cc(Cl)ccc1NS(=O)(=O)c1ccc(C(F)(F)F)cc1`, above 1000 nM; as for `O=C(c1ccncc1)c1cc(Cl)ccc1NS(=O)(=O)c1ccc(N2CCC2)cc1`, below 1000 nM. For the compound `O=C(c1ccncc1)c1cc(Cl)ccc1NS(=O)(=O)c1ccc(N2CCCCC2)cc1`, the IC50 is below 1000 nM.

Take `CC(C)(C)c1ccc(S(=O)(=O)Nc2ccc(F)cc2C(=O)c2ccncc2)cc1`: the half-inhibitory concentration (IC50) was below 1000 nM.

Turning to `CC(C)(C)c1ccc(S(=O)(=O)Nc2ccc(Cl)cc2C(=O)c2ccnc(S(C)(=O)=O)c2)cc1`, the IC50 is below 1000 nM. Take `Cc1cc(C(=O)c2cc(Cl)ccc2NS(=O)(=O)c2ccc(C(C)(C)C)cc2)cc[n+]1[O-]`: the concentration for half-maximal inhibition (IC50) is below 1000 nM. Same read-out and setting: in the case of `CC1(c2ccc(S(=O)(=O)Nc3ccc(Cl)cc3C(=O)c3ccncc3)cc2)CCOCC1` it was below 1000 nM; in that of `Cc1nnc(-c2cccc(S(=O)(=O)Nc3ccc(Cl)cc3C(=O)c3ccncc3)c2)o1`, above 1000 nM; in that of `Cc1ccc(C(=O)c2cc(Cl)ccc2NS(=O)(=O)c2ccc(C(C)(C)c3ncco3)cc2)cn1`, below 1000 nM. On the same count and under the same terms, as for `CC(C)(c1ccc(S(=O)(=O)Nc2ccc(Cl)cc2C(=O)c2ccncc2)cc1)N1CCCCC1=O`, the figure is below 1000 nM; as for `O=C(c1cc[n+]([O-])cc1)c1cc(Cl)ccc1NS(=O)(=O)c1ccc(N2CCOCC2)c(F)c1`, below 1000 nM. Turning to `CC1(c2ccc(S(=O)(=O)Nc3ccc(Cl)cc3C(=O)c3cc[n+]([O-])cc3)cc2)CCOCC1`, the IC50 is below 1000 nM. Turning to `CC1(c2ccc(S(=O)(=O)Nc3ccc(Cl)cc3C(=O)c3cc[n+]([O-])cc3)cc2)OCCO1`, the IC50 is below 1000 nM.

Regarding `O=C(c1ccncc1)c1cc(Cl)ccc1NS(=O)(=O)c1ccc(OC(F)(F)F)cc1`, the IC50 is below 1000 nM. The same measure, in the same setting: as for `CC(C)(c1ccc(S(=O)(=O)Nc2ccc(Cl)cc2C(=O)c2cc[n+]([O-])cc2)cc1)c1ncco1`, the figure is below 1000 nM; as for `Cc1ccc(C(=O)c2cc(Cl)ccc2NS(=O)(=O)c2ccc(N3C[C@@H](C)O[C@@H](C)C3)c(F)c2)cn1`, below 1000 nM; as for `O=C(c1ccncc1)c1cc(Cl)ccc1NS(=O)(=O)c1ccc(N2CCSCC2)cc1`, below 1000 nM. On the same count and under the same terms, in the case of `CC(=O)c1ccc(S(=O)(=O)Nc2ccc(Cl)cc2C(=O)c2ccncc2)cc1` it was above 1000 nM; in that of `CC(C)(C)c1ccc(S(=O)(=O)Nc2ccc(Cl)cc2C(=O)c2ccc(Cl)nc2)cc1`, below 1000 nM. The same measure, in the same setting: as for `CC(C)(C)c1ccc(S(=O)(=O)Nc2cc(Cl)ccc2C(=O)c2ccncc2)cc1`, the figure is below 1000 nM.

In the case of `CC(=O)c1ccc(S(=O)(=O)Nc2ccc(Cl)cc2C(=O)c2ccc(C)[n+]([O-])c2)cc1`, the IC50 is below 1000 nM. Same read-out and setting: in the case of `Cc1cc(C(=O)c2cc(Cl)ccc2NS(=O)(=O)c2ccc(OC(C)C)cc2)cc[n+]1[O-]` it was below 1000 nM. Still for that read-out and setting: as for `Cc1cc(C(=O)c2cc(Cl)ccc2NS(=O)(=O)c2ccc(C3(C)CCOCC3)cc2)cc[n+]1[O-]`, the figure is below 1000 nM.

With `CC1(c2ccc(S(=O)(=O)Nc3ccc(Cl)cc3C(=O)c3ccccn3)cc2)CCOCC1`, the IC50 was below 1000 nM.

Regarding `CC(C)(c1ccc(S(=O)(=O)Nc2ccc(Cl)cc2C(=O)c2ccnc(Cl)c2)cc1)c1ncco1`, the IC50 was below 1000 nM.

With `C[C@@H]1CN(c2ccc(S(=O)(=O)Nc3ccc(Cl)cc3C(=O)c3ccncc3)cc2)C[C@H](C)O1`, the IC50 is below 1000 nM. Still for that read-out and setting: as for `Cc1nnc(-c2ccc(S(=O)(=O)Nc3ccc(Cl)cc3C(=O)c3cccnc3)cc2)o1`, the figure is above 1000 nM; as for `Cc1ccc(C(=O)c2cc(Cl)ccc2NS(=O)(=O)c2ccc(C3(C)CCOCC3)cc2)cn1`, below 1000 nM; as for `CC(C)(C)c1ccc(S(=O)(=O)Nc2ccc(S(=O)(=O)N3CCCC3)cc2C(=O)c2cc[n+]([O-])cc2)cc1`, above 1000 nM. As to `O=C(c1ccncc1)c1cc(Cl)ccc1NS(=O)(=O)c1ccc(N2CCOCC2)c(F)c1`, the IC50 was below 1000 nM. The same measure, in the same setting: in the case of `Cn1nncc1C(=O)c1cc(Cl)ccc1NS(=O)(=O)c1ccc(C(C)(C)C)cc1` it was below 1000 nM.

For `CC(C)(C)c1ccc(S(=O)(=O)Nc2ccc(Cl)cc2C(=O)c2nccs2)cc1`, the half-maximal inhibitory concentration (IC50) is below 1000 nM. On the same count and under the same terms, as for `CCC(C)(C)c1ccc(S(=O)(=O)Nc2ccc(Cl)cc2C(=O)c2ccncc2)cc1`, the figure is below 1000 nM. Still for that read-out and setting: as for `CC(C)(c1ccc(S(=O)(=O)Nc2ccc(Cl)cc2C(=O)c2ccncc2)cc1)c1ncco1`, the figure is below 1000 nM; as for `COC(=O)CCc1ccc(S(=O)(=O)Nc2ccc(Cl)cc2C(=O)c2ccncc2)cc1`, below 1000 nM. Same read-out and setting: as for `Cc1ccc(C(=O)c2cc(Cl)ccc2NS(=O)(=O)c2ccc(C(C)(C)c3cocn3)cc2)cn1`, the figure is below 1000 nM; as for `CC(C)Oc1ccc(S(=O)(=O)Nc2ccc(Cl)cc2C(=O)c2cccnc2)cc1`, below 1000 nM; as for `C[C@@H]1CN(c2ccc(S(=O)(=O)Nc3ccc(Cl)cc3C(=O)c3ccc[n+]([O-])c3)cc2)C[C@H](C)O1`, below 1000 nM. Consider `CC(C)(C)OC(=O)n1c(-c2ccc(S(=O)(=O)Nc3ccc(Cl)cc3C(=O)c3ccncc3)cc2)cc2ccccc21`, for which the IC50 was above 1000 nM. Still for that read-out and setting: in the case of `CC(C)Sc1ccc(S(=O)(=O)Nc2ccc(Cl)cc2C(=O)c2ccncc2)cc1` it was below 1000 nM; in that of `Cc1ccc(C(=O)c2cc(Cl)ccc2NS(=O)(=O)c2ccc(N3CCOCC3)cc2)c[n+]1[O-]`, below 1000 nM. As for `COc1ccc(S(=O)(=O)Nc2ccc(Cl)cc2C(=O)NCc2ccccc2)cc1`, the IC50 was below 1000 nM. Still for that read-out and setting: as for `COc1ccc(S(=O)(=O)Nc2ccc(Cl)cc2C(=O)c2ccncc2)cc1`, the figure is below 1000 nM; as for `CC(C)(C)c1ccc(S(=O)(=O)Nc2ccc(Cl)cc2C(=O)c2cc[n+]([O-])c(Cl)c2)cc1`, below 1000 nM; as for `Cc1nnc(-c2ccc(S(=O)(=O)Nc3ccc(Cl)cc3C(=O)c3ccccn3)cc2)o1`, above 1000 nM.

As for `CN(C)C(=O)CCc1ccc(S(=O)(=O)Nc2ccc(Cl)cc2C(=O)c2ccncc2)cc1`, the IC50 is above 1000 nM. The same measure, in the same setting: in the case of `Cn1cc(C(=O)c2cc(Cl)ccc2NS(=O)(=O)c2ccc(C(C)(C)C)cc2)nn1` it was below 1000 nM; in that of `CC(C)(CO)c1ccc(S(=O)(=O)Nc2ccc(Cl)cc2C(=O)c2ccncc2)cc1`, below 1000 nM; in that of `Cc1ccc(C(=O)c2cc(Cl)ccc2NS(=O)(=O)c2ccc(C3(C)CCOCC3)cc2)c[n+]1[O-]`, below 1000 nM. On the same count and under the same terms, in the case of `CC(C)Oc1ccc(S(=O)(=O)Nc2ccc(Br)cc2C(=O)c2ccncc2)cc1` it was below 1000 nM. `Cc1noc(C)c1-c1ccc(S(=O)(=O)Nc2ccc(Cl)cc2C(=O)c2ccncc2)cc1`: the IC50 was below 1000 nM. The same measure, in the same setting: as for `CC(C)(C)c1ccc(S(=O)(=O)Nc2ccc(Cl)cc2C(=O)c2cc[nH]n2)cc1`, the figure is below 1000 nM.

Another experiment relates to Mus musculus. Nature of the experiment: Inhibition of inflammatory bowel disease-associated growth retardation in MDR1a-knockout mouse at 50 mg/kg, sc dosed twice daily for 14 consecutive weeks starting at age 10 weeks. The experiment is classed as functional, organism-based.
For `CC(C)(C)c1ccc(S(=O)(=O)Nc2ccc(Cl)cc2C(=O)c2ccncc2)cc1`, the outcome was Active.
